Test results published in PubChem BioAssay (NCI).
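Cultured in 96-well plates, cells were exposed to test compound for 48 hours across five concentrations. The concentration for 50% growth inhibition is given as GI50. TGI is the concentration that stops growth completely.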

Tests used:
Test in all cases: NCI tumour cell line growth inhibition, 48 h
RXF 393 renal = test system: RXF 393 renal
SF-268 CNS = test system: SF-268 CNS
SW-620 colon = test system: SW-620 colon
CAKI-1 renal = test system: CAKI-1 renal
SK-MEL-2 melanoma = test system: SK-MEL-2 melanoma
UO-31 renal = test system: UO-31 renal
NCI/ADR-RES ovarian = test system: NCI/ADR-RES ovarian
PC-3 prostate = test system: PC-3 prostate
T-47D breast = test system: T-47D breast
SR leukemia = test system: SR leukemia

Compound	TGI (RXF 393 renal)	TGI (SF-268 CNS)	TGI (SW-620 colon)	TGI (CAKI-1 renal)	TGI (SK-MEL-2 melanoma)	TGI (UO-31 renal)	GI50 (CAKI-1 renal)	GI50 (NCI/ADR-RES ovarian)	TGI (NCI/ADR-RES ovarian)	GI50 (PC-3 prostate)	TGI (PC-3 prostate)	GI50 (RXF 393 renal)	GI50 (SF-268 CNS)	GI50 (SK-MEL-2 melanoma)	GI50 (SW-620 colon)	GI50 (T-47D breast)	TGI (T-47D breast)	GI50 (UO-31 renal)	GI50 (SR leukemia)	TGI (SR leukemia)
CCOC(=O)c1nc(-c2ccccc2)oc1OCC	> 100 µM	> 100 µM	> 100 µM	–	–	–	–	–	–	–	–	–	–	–	–	–	–	–	–	–
O=C1c2ccccc2CC1C1(O)C(=O)Nc2ccccc21 (configuration not stated)	> 100 µM	> 100 µM	> 100 µM	> 100 µM	> 100 µM	> 100 µM	–	–	–	–	–	–	–	–	–	–	–	–	–	–
Cc1ccc2c(c1)C(=O)c1c-2n(CCCBr)c(=O)c2cc([N+](=O)[O-])ccc12	> 100 µM	> 100 µM	> 100 µM	32.6 µM	> 100 µM	> 100 µM	5.28 µM	54.7 µM	> 100 µM	17.4 µM	> 100 µM	> 100 µM	46.9 µM	> 100 µM	51.6 µM	7.69 µM	60.8 µM	27.5 µM	–	–
N.N.NCCCCCCN.O=C([O-])CC(=O)[O-].O=C([O-])CC(=O)[O-].[Pt+4].[Pt+4]	> 100 µM	> 100 µM	> 58.7 µM	> 100 µM	> 100 µM	> 100 µM	26.6 µM	–	–	–	–	> 41.4 µM	28.9 µM	> 100 µM	> 38 µM	–	–	> 100 µM	> 41.9 µM	> 100 µM
CCC1CCc2c(OC)ccc(OCC(=O)O)c2C1=O (configuration not stated)	> 100 µM	> 100 µM	> 100 µM	–	> 100 µM	> 100 µM	–	–	–	–	–	–	–	–	–	–	–	–	–	> 100 µM
C=CCNC(=O)NCCCC(NC(C)=O)C(=O)NCc1ccccc1 (configuration not stated)	> 100 µM	> 100 µM	> 100 µM	> 100 µM	> 100 µM	> 100 µM	–	–	–	–	–	–	–	–	–	–	–	–	–	–
CC1CCC(C(C)C)C(O[C@@H]2OC(=O)C[C@@H]2Sc2ccccc2)C1 (some centres not stated)	31.9 µM	> 100 µM	39.2 µM	63.6 µM	34.9 µM	–	–	–	–	–	–	–	–	–	–	–	–	–	–	–
C=C1CCC2[C@@H](CCC3[C@]2(C)CCC[C@]3(C)C(=O)OC)C1CCO (some centres not stated)	–	29.1 µM	26.9 µM	24.9 µM	36.6 µM	31.7 µM	–	–	–	–	–	–	–	–	–	–	–	–	–	–
C=C1CCc2occ(C)c2C2C1C1=C(CC(C)C1=O)C1OC12C (configuration not stated)	> 100 µM	> 100 µM	> 100 µM	–	> 100 µM	> 100 µM	–	–	–	–	–	–	–	–	–	–	–	–	–	–
CCOc1ccccc1/C=N\N=C(\N)N/N=C/c1ccccc1OCC	3.82 µM	> 100 µM	> 100 µM	> 100 µM	> 100 µM	> 100 µM	4.12 µM	2.62 µM	> 100 µM	3.14 µM	> 100 µM	1.26 µM	3.11 µM	1.26 µM	2.46 µM	3.73 µM	> 100 µM	2.97 µM	–	–
Cc1ccc(Sc2ccc(C)cc2[N+](=O)[O-])c([N+](=O)[O-])c1	> 100 µM	> 100 µM	> 100 µM	> 10 µM	> 100 µM	> 100 µM	–	–	–	–	–	–	–	–	–	–	–	–	–	–
Cn1cc(-c2ccc(-c3cn(C)c4ccc(Cl)cc34)s2)c2cc(Cl)ccc21	> 100 µM	> 100 µM	> 100 µM	> 100 µM	> 100 µM	> 100 µM	> 100 µM	> 100 µM	> 100 µM	> 100 µM	> 100 µM	70.3 µM	> 100 µM	> 100 µM	> 100 µM	–	–	> 100 µM	> 100 µM	> 100 µM
CCCCNC(=O)NS(=O)(=O)c1ccc(N2N=C(c3cc(C)ccc3C)CC2c2cc(OC)c(OC)c(OC)c2)cc1 (configuration not stated)	6.97 µM	11.7 µM	12.8 µM	12.7 µM	4.84 µM	12.3 µM	3.07 µM	2.95 µM	11.4 µM	1.94 µM	10.4 µM	2.61 µM	3.16 µM	2.2 µM	3.26 µM	3.91 µM	18.4 µM	3.07 µM	–	–
COC(=O)C1=C(C(=O)OC)SC(=C(N=Nc2ccccc2)c2ccccc2)S1	–	> 100 µM	> 100 µM	> 100 µM	> 100 µM	> 100 µM	–	–	–	–	–	–	–	–	–	–	–	–	–	> 100 µM
CCN(CC)CC(C(=O)Nc1c(C)cccc1C)/C(C)=N\NC(=O)c1ccncc1 (configuration not stated)	> 100 µM	> 100 µM	–	> 100 µM	> 100 µM	> 100 µM	–	–	–	–	–	–	–	–	–	–	–	–	–	> 100 µM
CC(=O)Nc1ccc(/C=C/C(=O)c2sc(-c3nc(C)c(C(=O)/C=C/c4ccc(NC(C)=O)cc4)s3)nc2C)cc1	> 100 µM	–	> 100 µM	> 100 µM	> 100 µM	> 100 µM	–	–	–	–	–	–	–	–	–	–	–	–	–	> 100 µM
CC#CC1C(OC(=O)c2ccccc2)CCCC1(CI)N=[N+]=[N-] (configuration not stated)	> 100 µM	> 100 µM	> 100 µM	> 100 µM	> 100 µM	> 100 µM	–	–	–	–	–	–	–	–	–	–	–	–	–	55.2 µM

Compound	TGI (RXF 393 renal)	TGI (SF-268 CNS)	TGI (SW-620 colon)	TGI (CAKI-1 renal)	TGI (SK-MEL-2 melanoma)	TGI (UO-31 renal)	GI50 (CAKI-1 renal)	GI50 (NCI/ADR-RES ovarian)	TGI (NCI/ADR-RES ovarian)	GI50 (PC-3 prostate)	TGI (PC-3 prostate)	GI50 (RXF 393 renal)	GI50 (SF-268 CNS)	GI50 (SK-MEL-2 melanoma)	GI50 (SW-620 colon)	GI50 (T-47D breast)	TGI (T-47D breast)	GI50 (UO-31 renal)	GI50 (SR leukemia)	TGI (SR leukemia)
C=CCC(OCCOCC)c1cc(OCCOCC)ccc1OC (configuration not stated)	> 100 µM	> 100 µM	> 100 µM	> 100 µM	> 100 µM	> 100 µM	–	–	–	–	–	–	–	–	–	–	–	–	–	–
O=C1NC2C=CN(Cc3ccccc3)C=C2C(=O)N2CCCC12 (configuration not stated)	> 100 µM	> 100 µM	> 100 µM	> 100 µM	> 100 µM	> 100 µM	–	–	–	–	–	–	–	–	–	–	–	–	–	> 100 µM
O=C(Nc1nc(=S)c2c(ncn2CCO)[nH]1)c1ccccc1	> 100 µM	> 100 µM	> 100 µM	> 100 µM	> 100 µM	> 100 µM	–	–	–	–	–	–	–	–	–	–	–	–	–	> 100 µM
N#Cc1cc([N+](=O)[O-])ccc1NC(=O)/C(=N/N)C(C(=O)c1ccc(Cl)c(Cl)c1)C1OC(=O)c2ccccc21 (configuration not stated)	> 100 µM	> 100 µM	> 100 µM	> 100 µM	> 100 µM	> 100 µM	–	–	–	–	–	–	–	–	–	–	–	–	–	> 100 µM
C=CC1C(OC2OC(CO)C(O)C(O)C2O)OC=C(C(=O)OC)C1CC=O (configuration not stated)	> 100 µM	> 100 µM	> 100 µM	–	> 100 µM	> 100 µM	–	–	–	–	–	–	–	–	–	–	–	–	–	> 100 µM
O=c1[nH]c(-c2ccc(-c3nc4cc([N+](=O)[O-])ccc4c(=O)[nH]3)cc2)nc2cc([N+](=O)[O-])ccc12	> 100 µM	–	> 100 µM	> 100 µM	> 100 µM	> 100 µM	–	–	–	–	–	–	–	–	–	–	–	–	–	> 100 µM
CC(C)C[C@H](NC(=O)[C@@H](O)[C@H](N)Cc1ccc([N+](=O)[O-])cc1)C(=O)O	> 25 µM	> 25 µM	> 25 µM	> 25 µM	> 25 µM	> 25 µM	> 25 µM	> 25 µM	> 25 µM	> 25 µM	> 25 µM	19.2 µM	> 25 µM	> 25 µM	> 25 µM	> 25 µM	> 25 µM	> 25 µM	–	–
Cc1c(Cl)cccc1NC1=C(Cl)C(=O)N(Cc2ccccc2)C1=O	32.7 µM	27 µM	–	5.06 µM	89.9 µM	24.4 µM	1.11 µM	5 µM	20.9 µM	4.85 µM	19 µM	12 µM	6.88 µM	27.5 µM	–	25.4 µM	> 100 µM	6.96 µM	–	–
C/C=C/C=C/CCCCCCCCCCCCCC1(OC)C=CC(CC(=O)OC)OO1 (configuration not stated)	15.3 µM	34 µM	4.34 µM	3.44 µM	39 µM	7.94 µM	1.6 µM	–	–	–	–	4.24 µM	–	–	1.99 µM	–	–	–	–	7.13 µM
C[C@@H](NC1CCC[C@H]1O)c1ccccc1 (some centres not stated)	> 100 µM	–	> 100 µM	> 100 µM	> 100 µM	> 100 µM	–	–	–	–	–	–	–	–	–	–	–	–	–	–
CC(=O)NC1CC2Oc3ccc(C)cc3C(C)(O2)C1O (configuration not stated)	> 100 µM	–	> 100 µM	–	> 100 µM	> 100 µM	–	–	–	–	–	–	–	–	–	–	–	–	–	–
CCOC(=O)C1=C(Nc2cccc3ccccc23)OC/C1=N\NC(=O)c1ccccc1O	> 37.5 µM	> 100 µM	> 100 µM	80.2 µM	> 100 µM	> 87.6 µM	–	–	–	–	–	–	–	–	–	–	–	–	–	41.4 µM
O=C1CCC2(c3ccccc3)Nc3ncccc3N12 (configuration not stated)	> 100 µM	> 100 µM	> 100 µM	> 100 µM	> 100 µM	> 100 µM	–	–	–	–	–	–	–	–	–	–	–	–	–	–
CC12CC(OC(=O)[C@]1(C)O)[C@@H]([C@]1(O)CC[C@H]3[C@@H]4C[C@H]5O[C@]56[C@@H](O)C=CC(=O)[C@]6(C)[C@H]4CC[C@@]31C)C2 (some centres not stated)	8.76 µM	30.2 µM	12.4 µM	24.9 µM	21 µM	16.8 µM	–	–	68.5 µM	–	26.5 µM	–	–	–	–	–	32.9 µM	–	–	–
COc1cc(C)c(O)c(C(=O)O)c1	> 100 µM	> 100 µM	> 100 µM	> 100 µM	> 100 µM	> 100 µM	–	–	–	–	–	–	–	–	–	–	–	–	–	> 100 µM
O=C(CCc1cc(-c2ccccc2)nc(=S)[nH]1)Nc1ccccc1[N+](=O)[O-]	> 100 µM	> 100 µM	> 100 µM	> 100 µM	> 100 µM	> 100 µM	–	–	–	–	–	–	–	–	–	–	–	–	–	> 100 µM
COC(=O)C1=C(O)c2cc3c(cc2[C@H](c2cc(OC)c(OC)c(OC)c2)C1C(=O)OC)OCO3 (some centres not stated)	73.4 µM	> 100 µM	> 100 µM	89.6 µM	–	> 100 µM	–	–	–	–	–	–	–	–	–	–	–	–	–	> 100 µM
